The subject of one data set is RKO cells. Put plainly: Combination of Asperphenin B with other anticancer drugs, SRB cell viability. The class given is cell-based, human. To be noted: 48 hours; for Effect of administration in combination: <1 synergistic, =1 additive, >1 antagonistic; for Effects of cell growth inhibition in combination with Asperphenin B compared to the anticancer drug alone: FIGS. 7A to 7C. The method, then: RKO cells diluted in a medium containing 10% (v/v) FBS were inoculated in each well of a 96-well microplate so that each plate included 7×10^3 cells, and then, the cells were cultured for about 24 hours at a temperature of 37° C. under the condition of 5% CO2. In the medium containing 10% (v/v) FBS, irinotecan (Sigma Aldrich), 5-fluorouracil (Sigma Aldrich), or gemsitabin (Sigma Aldrich) was mixed with […] at a ratio of 1:1, and then, the mixture was added to the cultured cells. Then, the cells were cultured for 48 hours at a temperature of 37° C. under the conditions of 5% CO2. […] In addition, the effects of the administration in combination were measured according to Equation 1, and results thereof are shown in Table 8. Effects of administration in combination=D1/(Dx)1+D2/(Dx)2 [Equation 1] D1: Concentration of […] with expected effect in administration in combination D2: Concentration of other anticancer drugs with expected effect in administration in combination (Dx)1: Concentration of […] with expected effect in administration of […] only (Dx)2: Concentration of other anticancer drugs with expected effect in administration of other anticancer drugs only […]

Data set [1] deals with lung cancer cell line A549. The experiment in a line: SRB cell viability assay, lung cancer cell line A549. The class given is cell-based. The note with it: A549, 72 hours, read-out: Cell growth inhibition concentration (IC50). The method, then: (§1) Regarding a lung cancer cell line A549 (Korean Cell line Bank), a colon cancer cell line HCT116 (ATCC), a stomach cancer cell line SNU638 (Korean Cell Line Bank), a liver cancer cell line SK-HEP-1 (Korean Cell line Bank), and a breast cancer cell line MDA-MB-231 (Korean Cell line Bank), a sulforhodamine B (SRB) assay which is a method of measuring cell viability was used for measuring apoptosis effects of Asperphenin.
(§2) In detail, 190 μl of a cell suspension at a concentration of 3.5×10^4 cells/ml was inoculated in each well of a 96-well microplate. 0.8 μM, 4 μM, 20 μM, or 100 μM of Asperphenin was added to the cell culture medium, and cultured at a temperature of 37° C. for 72 hours under the condition of 5% CO2. After incubation, 50 μl of 50% (v/v) trichloroacetic acid solution (Sigma Aldrich) was added to each well, and then, incubated at a temperature of 4° C. for 30 minutes, to thereby fix the cells thereto. The fixed cells were washed with water five times, and then, dried in the air.
(§3) Next, 80 μl of a 0.4% (w/v) SRB aqueous solution (Sigma Aldrich) containing 1% (v/v) acetic acid (DUKSAN) was added to each well, incubated at room temperature for 1 hour to stain cells therein, and the stained cells washed with water and dried. The cells were dissolved by adding 200 μl of 10 mM Tris (pH 10.0) (Sigma Aldrich) to each well, and then, the number of living cells was calculated by measuring the absorbance thereof at 515 nm. The concentration of the compound inhibiting cell growth to 50% based on the number of the living cells, i.e., 50% inhibition concentration (IC50) was calculated, and the results are shown in Table 3. Here, as a positive control, etoposide (Sigma Aldrich) was used.

For data set [2], the system named is liver cancer cell line SK-HEP-1. Put plainly: SRB cell viability assay, liver cancer cell line SK-HEP-1. It counts as cell-based. To be noted: SK-HEP-1, 72 hours, read-out: Cell growth inhibition concentration (IC50). The protocol:
as §1, §2, §3

Data set [3] concerns colon cancer cell line HCT116. Put plainly: SRB cell viability assay, colon cancer cell line HCT116. The class given is cell-based. The method, then:
as §1, §2, §3
From the colon cancer cell lines HCT116 (ATCC), HCT15 (Korean Cell Line Bank), LS174T (Korean Cell Line Bank), RKO(ATCC), and SW480(ATCC), cell growth inhibition concentrations (IC50, μM) were calculated as described in Example 2-1, and the results are shown in Table 4. Here, as a positive control, paclitaxel (Sigma Aldrich) was used.

The subject of data set [4] is breast cancer cell line MDA-MB-231. The experiment in a line: SRB cell viability assay, breast cancer cell line MDA-MB-231. The class given is cell-based. To be noted: MDA-MB-231, 72 hours, read-out: Cell growth inhibition concentration (IC50). The method, then: as §1, §2, §3
A short description of data set [5]: Physicochemical characterization.
Data set [6] deals with stomach cancer cell line SNU638. Put plainly: SRB cell viability assay, stomach cancer cell line SNU638. It counts as cell-based. To be noted: SNU638, 72 hours, read-out: Cell growth inhibition concentration (IC50). The method, then:
as §1, §2, §3

Data set [7] relates to colon cancer cell line RKO. Put plainly: SRB cell viability assay, colon cancer cell line RKO. The note with it: Homo sapiens, read-out: Growth inhibition value of cancer cell (IC50). It counts as cell-based. The method, then:
as §2
(§4) Next, 80 μl of a 0.4% (w/v) SRB aqueous solution (Sigma Aldrich) containing 1% (v/v) acetic acid (DUKSAN) was added to each well, incubated at room temperature for 1 hour to stain cells therein, and the stained cells washed with water and dried. The cells were dissolved by adding 200 μl of 10 mM Tris (pH 10.0) (Sigma Aldrich) to each well, and then, the number of living cells was calculated by measuring the absorbance thereof at 515 nm. […]
(§5) From the colon cancer cell lines HCT116 (ATCC), HCT15 (Korean Cell Line Bank), LS174T (Korean Cell Line Bank), RKO(ATCC), and SW480(ATCC), cell growth inhibition concentrations (IC50, μM) were calculated as described in Example 2-1, and the results are shown in Table 4. […]

Data set [8] deals with colon cancer cell line SW480. The experiment in a line: SRB cell viability assay, colon cancer cell line SW480. The class given is cell-based. To be noted: Homo sapiens, read-out: Growth inhibition value of cancer cell (IC50). The method, then: as §2, §4, §5
Data set [9] deals with colon cancer cell line LS174T. Put plainly: SRB cell viability assay, colon cancer cell line LS174T. It counts as cell-based. To be noted: Homo sapiens, read-out: Growth inhibition value of cancer cell (IC50). The protocol: as §2, §4, §5
For data set [10], the system named is colon cancer cell line HCT15. The experiment in a line: SRB cell viability assay, colon cancer cell line HCT15. To be noted: Homo sapiens, HCT-15, read-out: Growth inhibition value of cancer cell (IC50). It counts as cell-based. The protocol:
as §2, §4, §5

Where two headings read alike, the source gives them in different places.

On to `O=c1[nH]cc(F)c(=O)[nH]1` [5-fluorouracil], for which the “Effect of administration in combination” value worked out at 0.863 with RKO cells (5-fluorouracil 0.08 μM + Asperphenin B 8 μM), 0.852 in the data set on RKO cells (5-fluorouracil 0.4 μM + Asperphenin B 8 μM), 0.786 with RKO cells (5-fluorouracil 2 μM + Asperphenin B 8 μM) and 0.765 in the data set on RKO cells (5-fluorouracil 10 μM + Asperphenin B 8 μM). Moreover, in the data set on RKO cells, the “Effects of cell growth inhibition in combination with Asperphenin B compared to the anticancer drug alone” value was “increased”.

`CCCCCCCCC[C@@H](O)CC(=O)N[C@@H](CC(N)=O)C(=O)N[C@@H](CCC(N)=O)C(=O)N[C@@H](CC(=O)c1cc(C)cc(O)c1C(=O)c1c(O)cccc1O)CC(C)C` [Asperphenin A]: the IC50 stood at 14600 nM in data set [1]; 2300 nM in data set [2]; 1700 nM in data set [3] (HCT116, 72 hours, Table 3, read-out: Cell growth inhibition concentration (IC50)); 3100 nM in [4]; 5800 nM in [6]. The “Solubility in organic solvent” value in data set [5] (methanol and acetone) was “well dissolved in a moderate organic solvent, such as methanol and acetone”. In [5] (room temperature), the Stability entry is “stable at room temperature”.

In the case of `COc1cc([C@@H]2c3cc4c(cc3[C@@H](O[C@@H]3O[C@@H]5CO[C@@H](C)O[C@H]5[C@H](O)[C@H]3O)[C@H]3COC(=O)[C@H]23)OCO4)cc(OC)c1O` [Etoposide, etoposide, reference compound], the IC50 came out at 700 nM in [1] (Homo sapiens); 600 nM in [2] (Homo sapiens, SK-HEP1); 1900 nM in [3] (Homo sapiens, HCT-116, HCT116, 72 hours, Table 3, read-out: Cell growth inhibition concentration (IC50)); 10600 nM in data set [4] (Homo sapiens); 800 nM in data set [6] (Homo sapiens, SNU-638).

As to `Nc1ccn([C@@H]2O[C@H](CO)[C@@H](O)C2(F)F)c(=O)n1` [Gemsitabin, gemsitabin], the “Effects of cell growth inhibition in combination with Asperphenin B compared to the anticancer drug alone” value in the data set with RKO cells is “increased”. Besides, the “Effect of administration in combination” value in the data set on RKO cells (gemsitabin 0.32 μM + Asperphenin B 8 μM) was 0.907; in the data set on RKO cells (gemsitabin 1.6 μM + Asperphenin B 8 μM) it was 0.882; with RKO cells (gemsitabin 8 μM + Asperphenin B 8 μM), 0.801; in the data set with RKO cells (gemsitabin 40 μM + Asperphenin B 8 μM), 0.714.

In the case of `CCc1c2c(nc3ccc(OC(=O)N4CCC(N5CCCCC5)CC4)cc13)-c1cc3c(c(=O)n1C2)COC(=O)[C@]3(O)CC` [Irinotecan, irinotecan], the “Effects of cell growth inhibition in combination with Asperphenin B compared to the anticancer drug alone” value in the data set with RKO cells is given as “increased”. In addition, the “Effect of administration in combination” value in the data set on RKO cells (irinotecan 1.25 μM + Asperphenin B 2.5 μM) is 0.792; in the data set with RKO cells (irinotecan 2.5 μM + Asperphenin B 2.5 μM), 0.751; in the data set on RKO cells (irinotecan 5 μM + Asperphenin B 2.5 μM) it was 0.691; in the data set with RKO cells (irinotecan 10 μM + Asperphenin B 2.5 μM) it was 0.650.

As for `CC(=O)O[C@H]1C(=O)[C@@]2(C)[C@H]([C@H](OC(=O)c3ccccc3)[C@]3(O)C[C@H](OC(=O)[C@H](O)[C@@H](NC(=O)c4ccccc4)c4ccccc4)C(C)=C1C3(C)C)[C@]1(OC(C)=O)CO[C@@H]1C[C@@H]2O` [Paclitaxel, paclitaxel, reference compound], the IC50 in data set [7] was 0.21 nM; in [8] it was > 100 nM; in data set [9] it was 0.46 nM; in [10] it was > 100 nM; in data set [3] (Homo sapiens, HCT-116, HCT116, Table 4, read-out: Growth inhibition value of cancer cell (IC50)) it was 0.42 nM.

(Values after US10759831B2, “Peptide compound, production method therefor, and use thereof” (iNtRON Biotechnology, Inc., priority 2014, dated 2020).)
